Results on 6 compounds are retold here after patent publication US8440632B2, “Protopanaxadiol-type ginsenoside compositions and uses thereof” (Raptor Therapeutics Inc., priority 2008, dated 2013).

In assay [1] the test system is alcohol dehydrogenase (ADH). The assay is described as follows: Alcohol dehydrogenase (ADH) activity, colorimetric assay. Type of assay: biochemical. The note with it: 5, 50 or 500 μg/mL, relative to ADH activity in the absence of ginsenoside (FIG. 1). The procedure:
Ginsenosides Rb1, Rb2, Rc, Rd, Re and Rg1 were obtained from ChromaDex Inc., Irvine, Calif., USA. The ginsenosides were dissolved in DMSO to prepare a stock solution. Prior to performing an activity assay, portions of a ginsenosides stock solution were diluted in aqueous reaction buffer solution and from which samples were taken and assayed for activity.
ADH activity was measured in a colorimetric assay as described in Gibla and Gonzalex-Durante, J. Biochem. Biophys. Methods 1993, 26, 87-93, the contents of which are incorporated by reference herein in its entirety.

The target in assay [2] is T1, aldehyde dehydrogenase (ALDH) (Saccharomyces cerevisiae, UniProt P46367).
T1 construct: purchased Sigma-Aldrich A 6338
T1 sequence (P46367 25-519): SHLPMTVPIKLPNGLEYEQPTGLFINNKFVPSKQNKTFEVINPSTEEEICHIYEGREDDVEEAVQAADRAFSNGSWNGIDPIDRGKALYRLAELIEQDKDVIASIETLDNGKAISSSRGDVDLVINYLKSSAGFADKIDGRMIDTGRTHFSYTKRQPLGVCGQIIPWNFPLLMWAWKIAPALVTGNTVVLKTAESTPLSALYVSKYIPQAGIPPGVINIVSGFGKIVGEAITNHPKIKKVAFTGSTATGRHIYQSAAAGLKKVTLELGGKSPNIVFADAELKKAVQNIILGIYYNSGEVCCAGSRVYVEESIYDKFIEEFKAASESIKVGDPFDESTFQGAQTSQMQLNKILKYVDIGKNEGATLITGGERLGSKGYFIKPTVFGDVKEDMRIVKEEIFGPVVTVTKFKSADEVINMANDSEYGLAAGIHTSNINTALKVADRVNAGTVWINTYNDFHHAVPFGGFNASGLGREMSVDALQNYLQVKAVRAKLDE
Nature of the assay: Aldehyde dehydrogenase (ALDH) activity assay, conversion of acetaldehyde into acetic acid. It is filed as biochemical. The conditions noted are these: 5, 50 or 500 μg/mL, relative to ALDH activity in the absence of ginsenoside (FIG. 3). The procedure:
Stock solutions of ginsenosides Rb1, Rb2, Rc, Rd, Re and Rg1 in DMSO as described above, were prepared. ALDH was obtained from Sigma-Aldrich (product no. A 6338). Enzyme activity assays were performed in vitro according to instructions supplied by the vendor as modified by the addition of test substances, which is based on assay described in Bostian et al., Biochemical Journal 1978, 173, 773-786, the contents of which are incorporated by reference herein in their entirety. This assay measures the conversion of acetaldehyde into acetic acid via […] by ALDH catalysis.

As for `CC(C)=CCC[C@](C)(O[C@@H]1O[C@H](CO[C@@H]2O[C@H](CO)[C@@H](O)[C@H](O)[C@H]2O)[C@@H](O)[C@H](O)[C@H]1O)[C@H]1CC[C@]2(C)[C@@H]1[C@H](O)C[C@@H]1[C@@]3(C)CC[C@H](O[C@@H]4O[C@H](CO)[C@@H](O)[C@H](O)[C@H]4O[C@@H]4O[C@H](CO)[C@@H](O)[C@H](O)[C@H]4O)C(C)(C)[C@@H]3CC[C@]12C` [ginsenoside Rb1], in assay [1], the “effect on ADH activity” value is listed as “reduced ADH activity”. Also, in assay [2], the “effect on ALDH activity” value is recorded as “increased ALDH activity”.

In the case of `CC(C)=CCC[C@](C)(O[C@@H]1O[C@H](CO[C@@H]2OC[C@H](O)[C@H](O)[C@H]2O)[C@@H](O)[C@H](O)[C@H]1O)[C@H]1CC[C@]2(C)[C@@H]1[C@H](O)C[C@@H]1[C@@]3(C)CC[C@H](O[C@@H]4O[C@H](CO)[C@@H](O)[C@H](O)[C@H]4O[C@@H]4O[C@H](CO)[C@@H](O)[C@H](O)[C@H]4O)C(C)(C)[C@@H]3CC[C@]12C` [ginsenoside Rb2], in assay [1], the “effect on ADH activity” value is “reduced ADH activity”. In addition, the “effect on ALDH activity” value in assay [2] is “increased ALDH activity”.

Consider `CC(C)=CCC[C@](C)(O[C@@H]1O[C@H](CO[C@@H]2O[C@@H](CO)[C@H](O)[C@H]2O)[C@@H](O)[C@H](O)[C@H]1O)[C@H]1CC[C@]2(C)[C@@H]1[C@H](O)C[C@@H]1[C@@]3(C)CC[C@H](O[C@@H]4O[C@H](CO)[C@@H](O)[C@H](O)[C@H]4O[C@@H]4O[C@H](CO)[C@@H](O)[C@H](O)[C@H]4O)C(C)(C)[C@@H]3CC[C@]12C` [ginsenoside Rc], for which the “effect on ADH activity” value in assay [1] is on record as “reduced ADH activity”. In assay [2], the “effect on ALDH activity” value is on record as “increased ALDH activity”.

For `CC(C)=CCC[C@](C)(O[C@@H]1O[C@H](CO)[C@@H](O)[C@H](O)[C@H]1O)[C@H]1CC[C@]2(C)[C@@H]1[C@H](O)C[C@@H]1[C@@]3(C)CC[C@H](O[C@@H]4O[C@H](CO)[C@@H](O)[C@H](O)[C@H]4O[C@@H]4O[C@H](CO)[C@@H](O)[C@H](O)[C@H]4O)C(C)(C)[C@@H]3CC[C@]12C` [ginsenoside Rd], the “effect on ADH activity” value in assay [1] is “reduced ADH activity”. The “effect on ALDH activity” value in assay [2] is given as “increased ALDH activity”.

For `CC(C)=CCC[C@](C)(O[C@@H]1O[C@H](CO)[C@@H](O)[C@H](O)[C@H]1O)[C@H]1CC[C@]2(C)[C@@H]1[C@H](O)C[C@@H]1[C@@]3(C)CC[C@H](O)C(C)(C)[C@@H]3[C@@H](O[C@@H]3O[C@H](CO)[C@@H](O)[C@H](O)[C@H]3O[C@@H]3O[C@@H](C)[C@H](O)[C@@H](O)[C@H]3O)C[C@]12C` [ginsenoside Re, reference compound], in assay [1], the “effect on ADH activity” value is on record as “did not have a significant effect on ADH activity”. Moreover, the “effect on ALDH activity” value in assay [2] is listed as “did not have a significant effect on ALDH activity”.

For `CC(C)=CCC[C@](C)(O[C@@H]1O[C@H](CO)[C@@H](O)[C@H](O)[C@H]1O)[C@H]1CC[C@]2(C)[C@@H]1[C@H](O)C[C@@H]1[C@@]3(C)CC[C@H](O)C(C)(C)[C@@H]3[C@@H](O[C@@H]3O[C@H](CO)[C@@H](O)[C@H](O)[C@H]3O)C[C@]12C` [ginsenoside Rg1, reference compound], the “effect on ADH activity” value in assay [1] is reported as “did not have a significant effect on ADH activity”. The “effect on ALDH activity” value in assay [2] is “did not have a significant effect on ALDH activity”.
